In ChEMBL document CHEMBL1828505, “Bioactive components from the heartwood of Pterocarpus santalinus” (Bioorg Med Chem Lett, 2011):
pIC50: −log10 of the molar value.

How the values were obtained:
[1] = Cytotoxicity against human KBVIN cells; format: functional, cell-based
[2] = test system: KB; assay: Cytotoxicity against human KB cells; format: functional, cell-based
[3] = test system: DU-145; assay: Cytotoxicity against human DU145 cells; format: functional, cell-based
[4] = test system: A549; assay: Cytotoxicity against human A549 cells; format: functional, cell-based
[5] = test system: HepG2; assay: Cytotoxicity against human HepG2 cells; format: functional, cell-based
[6] = Cytotoxicity against human Hep3B cells; format: functional, cell-based, Hep 3B2
[7] = Antiinflammatory activity in human neutrophils assessed as inhibition of fMLP/CB-indcued superoxide anion production; format: functional, cell-based; details: Neutrophil
[8] = Antiinflammatory activity in human neutrophils assessed as inhibition of fMLP/CB-induced elastase release; format: functional, cell-based; details: Neutrophil
[9] = test system: Neutrophil; assay: Ratio of LY294002 IC50 to compound IC50 for inhibition of fMLP/CB-indcued elastase release in human neutrophils; format: functional

pIC50 [7]	pIC50 [8]	Structure (SMILES)	pIC50 [1]	pIC50 [2]	IC50 [3]	IC50 [4]	IC50 [1]	IC50 [2]	pIC50 [5]	pIC50 [6]	IC50 [5]	Ratio IC50 [9]	pIC50 [3]	pIC50 [4]
		COc1cc(O)c(C(=O)c2ccccc2)cc1O [CEAROIN]	4.49	4.45	> 10 µg/mL	> 10 µg/mL								
		COc1cc2oc(=O)cc(-c3ccccc3)c2cc1O [DALBERGIN]			> 10 µg/mL	> 10 µg/mL	> 10 µg/mL	> 10 µg/mL						
		COc1cccc2c1C(=O)c1c(O)c3c(c(O)c1C2=O)C[C@@](O)(C(=O)CO)C[C@@H]3O[C@H]1C[C@H](N)[C@H](O)[C@H](C)O1 [DOXORUBICIN]							5.89	5.80				
5.42	5.19	O=c1cc(N2CCOCC2)oc2c(-c3ccccc3)cccc12 [LY-294002]												
6.00	5.37	COC1=CC(=O)c2cc(-c3ccc(OC)c(O)c3)c3cc(O)c(OC)cc3c2C1=O [PTEROLINUS K]			> 10 µg/mL	> 10 µg/mL	> 10 µg/mL	> 10 µg/mL		4.96	> 10 µg/mL			
	6.02	COc1ccc(C(=O)/C=C/c2cc(O)c(OC)cc2O)cc1O [PTEROLINUS L]	4.65	4.76					4.69	4.68		6	4.53	4.66
